Here are results for eight compounds from patent US9902737B2, “Sweet flavor modifier” (SENOMYX, INC., priority 2010, dated 2018).

Molecules are shown by their SMILES. Where “and” joins values, the source holds several entries; their conditions need not be identical. Equal entries are not always repeated.

Data set [1] relates to human panelists. Description: Sweet flavor enhancement, human panelists, scaling test. It counts as in vivo. More on the design: key: 0 = no sweetness, 15 = sweetness equal to 15% sucrose. Particulars: 0-15 line scale. The text has this:
Test samples containing experimental compounds were compared to a dose-response curve for perceived sweetness intensity of sweeteners (sucralose, sucrose, fructose and other sweeteners) concentrations to determine equivalent sweetness intensity.
A group of eight or more panelists tasted solutions including sweeteners at various concentrations, as well as the experimental compound both with and without added sweetener. Panelists then rated sweetness intensity of all samples on a structured horizontal line scale, anchored from 0 to 15, where 0 equals no sweetness and 15 equals equivalent sweetness to a 15% sucrose sample. Scores for sweetness intensity were averaged across panelists. Then using the average scores and/or equation of the line for the sweetener dose-response curve, equivalent sweetness concentrations were determined for the samples containing experimental compounds.
Subjects had been previously familiarized with the key attribute taste and were trained to use the 0 to 15 point line scale. Subjects refrained from eating or drinking (except water) for at least 1 hour prior to the test. Subjects ate a cracker and rinsed with water several times to clean the mouth.
Sweetener solutions are provided at a wide range of concentrations such as 100 ppm, 200 ppm, 300 ppm, 400 ppm, and 500 ppm for sucralose, or between 0% and 12% for sucrose or fructose, in order to create a dose-response curve. Samples containing experimental compound were prepared both alone and in a 100 ppm sucralose solution or a 6% sucrose or fructose solution. All samples were made up in low sodium buffer pH 7.1. In order to aid dispersion, solutions can be made up in 0.1% ethanol.
The solutions were dispensed in 20 ml volumes into 1 oz. sample cups and served to the subjects at room temperature. All samples were presented in randomized counterbalanced order to reduce response bias. Further, two sessions of testing may be used to check panel precision.
Subjects tasted each sample individually and rate sweetness intensity on the line scale prior to tasting the next sample. All samples were expectorated. Subjects may retaste the samples but can only use the volume of sample given. Subjects must rinse with water between samples. Eating an unsalted cracker between samples may be required depending on the samples tasted.
The scores for each sample were averaged across subjects and standard error was calculated. The dose-response curve was plotted graphically, and this may be used to ensure the panel is rating accurately; i.e., increasing the concentration of sucralose should correspond to increased average scores for sweetness. A 2-way ANOVA (factors being samples and panelists) and multiple comparison tests (such as Tukey's Honestly Significant Difference test) can be used to determine differences among samples and/or panelists. A 3-way ANOVA, with sessions as the third factor, can be used to determine if there is any difference in the ratings between sessions.

Data set [2] relates to human panelists. Description: Sweet flavor enhancement, human panelists, paired comparison test. It counts as in vivo. How it is done: Test samples containing experimental compounds are presented in pairs to the panelist and they are asked to determine which of the sample is sweeter. A group of 10-16 or more panelists participated in each test. Subjects refrained from eating or drinking (except water) for at least 1 hour prior to the test. Subjects rinsed with water several times to clean the mouth.
All samples are prepared with ethanol to ensure dispersion of the compound in solution. This includes samples without compound; all solutions are balanced for 0.1% ethanol.
Samples are also prepared with low sodium buffer (pH 7.1) in place of water. Buffer contains 0.952 g of KCl, 5.444 g of Na2HPO4, and 0.952 g of KH2PO4 in 40 L of DIUF water. Sample volumes are usually 20 ml.
In one paired comparison test, the panelist is presented with two different samples and asked to identify the sample which is sweeter. The samples within a paired comparison test are presented in a randomized, counterbalanced order. Panelists have up to a 1 minute delay between taste tests to clear the mouth of any tastes.
Binomial probability tables are used to determine the probability of the correct number of responses occurring for each test at alpha=0.05

The target of the next data set is T1, hT1R2/R3 (Homo sapiens, UniProt Q7RTX0+Q8TE23).
T1 construct: expressed in transfected cells; host or cells: HEK293 cells expressing Ga15 (hT1R2/R3-HEK293 Ga15)
T1 sequence (Q8TE23 20-839): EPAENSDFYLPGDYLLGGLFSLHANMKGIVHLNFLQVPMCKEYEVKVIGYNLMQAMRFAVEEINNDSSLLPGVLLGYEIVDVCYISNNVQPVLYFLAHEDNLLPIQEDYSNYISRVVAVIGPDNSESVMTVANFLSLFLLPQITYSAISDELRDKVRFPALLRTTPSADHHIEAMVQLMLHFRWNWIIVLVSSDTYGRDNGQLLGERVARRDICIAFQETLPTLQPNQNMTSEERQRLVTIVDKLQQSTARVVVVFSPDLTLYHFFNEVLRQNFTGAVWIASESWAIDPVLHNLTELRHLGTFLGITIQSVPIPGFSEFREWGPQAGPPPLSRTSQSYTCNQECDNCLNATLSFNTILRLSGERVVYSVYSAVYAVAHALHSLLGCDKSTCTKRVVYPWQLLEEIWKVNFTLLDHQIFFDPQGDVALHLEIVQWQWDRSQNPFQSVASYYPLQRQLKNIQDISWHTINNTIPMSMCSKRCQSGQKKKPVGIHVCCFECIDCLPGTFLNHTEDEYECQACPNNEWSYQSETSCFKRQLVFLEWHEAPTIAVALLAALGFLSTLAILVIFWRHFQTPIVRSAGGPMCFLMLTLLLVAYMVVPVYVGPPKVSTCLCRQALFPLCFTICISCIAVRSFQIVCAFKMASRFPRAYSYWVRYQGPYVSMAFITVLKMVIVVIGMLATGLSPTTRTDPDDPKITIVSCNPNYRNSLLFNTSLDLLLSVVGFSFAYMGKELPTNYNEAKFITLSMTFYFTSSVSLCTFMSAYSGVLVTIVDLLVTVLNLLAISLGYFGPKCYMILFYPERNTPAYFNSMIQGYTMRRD
T1 sequence (Q7RTX0 21-852): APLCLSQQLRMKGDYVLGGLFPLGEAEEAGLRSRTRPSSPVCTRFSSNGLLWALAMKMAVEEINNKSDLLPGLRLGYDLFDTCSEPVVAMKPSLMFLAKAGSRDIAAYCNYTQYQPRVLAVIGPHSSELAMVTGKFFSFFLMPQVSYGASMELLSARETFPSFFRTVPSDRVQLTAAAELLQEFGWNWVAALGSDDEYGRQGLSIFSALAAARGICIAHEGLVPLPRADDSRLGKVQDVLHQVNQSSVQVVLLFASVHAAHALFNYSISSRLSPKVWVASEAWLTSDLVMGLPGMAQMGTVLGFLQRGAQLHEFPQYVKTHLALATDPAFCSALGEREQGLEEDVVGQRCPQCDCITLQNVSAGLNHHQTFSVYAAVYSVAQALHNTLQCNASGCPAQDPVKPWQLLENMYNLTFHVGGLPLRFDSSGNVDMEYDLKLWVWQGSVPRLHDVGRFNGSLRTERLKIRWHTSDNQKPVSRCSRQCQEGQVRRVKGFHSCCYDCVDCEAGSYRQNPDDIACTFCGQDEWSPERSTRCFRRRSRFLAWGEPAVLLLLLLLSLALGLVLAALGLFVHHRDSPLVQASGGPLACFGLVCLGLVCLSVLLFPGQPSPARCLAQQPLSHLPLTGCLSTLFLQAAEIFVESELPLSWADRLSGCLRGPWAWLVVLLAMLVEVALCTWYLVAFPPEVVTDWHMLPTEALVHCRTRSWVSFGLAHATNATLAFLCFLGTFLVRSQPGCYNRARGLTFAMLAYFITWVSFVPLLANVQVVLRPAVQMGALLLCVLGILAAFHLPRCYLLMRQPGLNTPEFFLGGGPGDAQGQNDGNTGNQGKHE
The data set is described as follows: Screening for sweet enhancers: sucrose EC50 shift, FLIPR calcium assay. The data set is classed as cell-based. Particulars: sucrose EC50 without enhancer / with enhancer; test compound 50 μM; hT1R2/R3-HEK293 Ga15 cells; Tables A and B. How it is done: hT1R2/R3-HEK293 Ga15 cells were seeded in 384-well-clear bottom plates (Fisher) at a density of ˜32,000 cells/well and grown overnight. On the day of the experiment, hT1R2/R3-HEK293 Ga15 were loaded with the calcium indicator Fluo3AM ([…]) (Invitrogen, Carlsbad, Calif.) in D-PBS (Invitrogen, Carlsbad, Calif.) using a Multidrop. Cells were incubated for 1 hour at room temperature and excess dye was washed out with D-PBS using an EMBLA cell washer (Molecular Devices, Sunnyvale, Calif.), leaving a residual volume of […]. […] After 30 minutes of rest time at room temperature, Fluo3AM-loaded cell plates, and the sweetener/compound plate mixture were loaded into a Fluorometric Imaging Plate Reader (FLIPR) (Molecular Devices, Sunnyvale, Calif.). Imaging was performed using a 480 nm excitation and a 535 emission and was initiated with the acquisition of the baseline fluorescence for a period of 7 seconds. […] Raw fluorescence counts were then normalized in each well (using custom made data import software) by calculating delta F/f values (maximum fluorescent count obtained after stimulation—minimal fluorescent count obtained before stimulation/minimal fluorescent count obtained before stimulation). EC50s were determined using a non-linear regression algorithm (GraphPad PRISM, San Diego, Calif.), where the Hill slope, bottom asymptotes and top asymptotes were allow to vary. […]

Consider `OC[C@H]1O[C@@](CO)(O[C@H]2O[C@H](CO)[C@@H](O)[C@H](O)[C@H]2O)[C@@H](O)[C@@H]1O` [Sucrose, sucrose], for which the Average sweetness is 6.6 and 6.5 and 6.3 and 6.2 and 6.1 and 6.4 in the data set with human panelists [1] (6% sucrose alone (reference)); 8.2 and 8.1 and 7.8 and 7.9 and 8.4 in the data set on human panelists [1] (8% sucrose alone (reference)); 9.2 and 8.4 and 8.6 and 8.5 with human panelists [1] (9% sucrose alone (reference)); 9.7 and 9.5 and 9.2 and 9.0 and 9.6 and 10.3 in the data set on human panelists [1] (10% sucrose alone (reference)); 10.9 in the data set on human panelists [1] (12% sucrose alone (reference)). In addition, the “Sample selected as sweeter by panelists, Total” value in the data set on human panelists [2] (pair: 1% sucrose vs LSB + 25 uM Compound A, total 45) came to 44; with human panelists [2] (pair: 1% sucrose vs LSB + 25 uM Compound I3, total 42), 36; in the data set on human panelists [2] (pair: 1% sucrose vs LSB + 33 uM Compound C1, total 22), 18; in the data set with human panelists [2] (pair: 1% sucrose vs LSB + 36.5 uM Compound B4, total 45), 44; with human panelists [2] (pair: 1% sucrose vs LSB + 45 uM Compound J, total 48), 47; in the data set on human panelists [2] (pair: 10% sucrose vs 6% sucrose + 25 uM Compound A, total 48), 28. Also, the “Sample selected as sweeter by panelists, Total” value in the data set with human panelists [2] (pair: 10% sucrose vs 6% sucrose + 36.5 uM Compound B4, total 26) turned out to be 10; in the data set on human panelists [2] (pair: 10% sucrose vs 6% sucrose + 45 uM Compound J, total 42), 17; with human panelists [2] (pair: 12% sucrose vs 6% sucrose + 25 uM Compound I3, total 42) it was 18; in the data set with human panelists [2] (pair: 12% sucrose vs 6% sucrose + 33 uM Compound C1, total 30) it was 17.

`OC[C@H]1O[C@H](O[C@]2(CCl)O[C@H](CCl)[C@@H](O)[C@@H]2O)[C@H](O)[C@@H](O)[C@H]1Cl` [sucralose]: the Average sweetness in the data set on human panelists [1] (50 ppm sucralose alone (reference)) was 3.9; in the data set with human panelists [1] (100 ppm sucralose alone (reference)), 5.9 and 5.5; in the data set on human panelists [1] (200 ppm sucralose alone (reference)), 8.7 and 9.1; with human panelists [1] (300 ppm sucralose alone (reference)), 10.2.

The melting point is the temperature, or range, at which the solid turns liquid. Consider `Cc1nc2cccc(OCC(C)(C)NC(=O)c3ccncc3)c2c(N)c1C(=O)O` [Example 24, 4-amino-5-(2-(isonicotinamido)-2-methylpropoxy)-2-methylquinoline-3-carboxylic acid], for which the melting point lay in the range of 195 to 198 °C.

Turning to `Cc1nc2cccc(OCC(C)(C)NC(=O)c3cccc(O)c3)c2c(N)c1C(=O)O` [Example 25, 4-amino-5-(2-(3-hydroxybenzamido)-2-methylpropoxy)-2-methylquinoline-3-carboxylic acid], the melting point was 195 to 198 °C.

Consider `CCCNC(=O)C(C)(C)COc1cccc2nc(CC)c(C(=O)O)c(N)c12` [Compound Q, 4-amino-5-(2,2-dimethyl-3-oxo-3-(propylamino)propoxy)-2-ethyl-quinoline-3-carboxylic acid], for which the “EC50 Ratio (50 μM)” value on hT1R2/R3 is recorded as 3.4.

For the compound `CCC(CC)COc1cccc2nc(C)c(C(=O)O)c(N)c12` [Example 22, 4-amino-5-(2-ethylbutoxy)-2-methylquinoline-3-carboxylic acid], the melting point lay in the range of 145 to 151 °C.

The compound `Cc1nc2cccc(OC3CCCCC3)c2c(N)c1C(=O)O` [Example 36, 4-amino-5-(cyclohexyloxy)-2-methylquinoline-3-carboxylic acid] registered a melting point of 220 to 221.5 °C.

`Cc1nc2cccc(OCC(C)C)c2c(N)c1C(=O)O` [Example 41, 4-amino-5-isobutoxy-2-methylquinoline-3-carboxylic acid] had a melting point of 203.7 °C.
